According to patent US20090221590A1, “SALT OF CD 80 ANTAGONIST” (MEDIGENE LIMITED, priority 2006, published 2009):
Converted amounts (≈) assume the structure as drawn.

Test: Solubility Assay (saturation, shaker 24 hours, supernatant analysed by HPLC)
Settings: for Solubility (mg/ml) in ethanol: solvent ethanol; for Solubility (mg/ml) in ethanol / Solubility (mg/ml) in water: 25 deg C./60% relative humidity, 24 hours; for Solubility (mg/ml) in water: solvent water; for solubility at 24 h: 25 °C, thermodynamic from solid
Experimental: 10 mg of the test compound was weighed into a vial, and 1 ml of solvent was added. If the sample dissolved immediately, as evidenced by a formation of a clear solution, more of the test material was added and the vial sonicated for 15 mins. This procedure was repeated until no more test compound could be dissolved, as evidenced by formation of a suspension. The vial containing the suspension was then was sonicated for 15 mins, and placed on a shaker at 25 deg C./60% relative humidity for 24 hours. On removal from the shaker, the sample was centrifuged and the supernatant analysed by HPLC.

Molecule | Solubility (mg/ml) in ethanol | Solubility (mg/ml) in water | solubility at 24 h (ethanol, organic solvent or mixture) | solubility at 24 h (water) | aqueous solubility (in words) (water, qualitative statement)
[Mg] [Magnesium] | <5 mg/mL | <5 mg/mL | – | – | –
O=C(NCC(F)F)c1ccc(-n2[nH]c3c(nnc4c(F)cccc43)c2=O)cc1 [None (free acid), 4-(6-fluoro-3-oxo-1,3-dihydro-pyrazolo[4,3-c]cinnolin-2-yl)-N-(2,2-difluoro-ethyl)-benzamide] | – | – | 2100 µg/mL (≈ 5.42 mM) | < 500 µg/mL | poorly soluble in water
Sodium | 7.1 mg/mL | <5 mg/mL | – | – | –
[K+] [Potassium] | <5 mg/mL | <5 mg/mL | – | – | –
